Experiments:
[1] = Kinetic solubility (turbidity); format: physicochemical; details: kinetic solubility by turbidity, test range 3.125 μM to 200 μM, 10 mM PBS pH 7.4
Procedure: (§1) Unless otherwise stated, laboratory reagent grade solvents were used. Reagents were obtained from Sigma-Aldrich, Acros Organics or Fluorochem and were used without further purification. Characterization of all compounds was done with ^1H and ^13C NMR and mass spectrometry. ^1H and ^13C NMR spectra were recorded on a 400 MHz Bruker Avance III Nanobay spectrometer with Ultrashield and analyzed by use of MestReNova analytical chemistry software. Chemical shifts are in ppm, and coupling constants are in hertz (Hz). ES mass spectra were obtained from an Esquire 3000 plus ion trap mass spectrometer from Bruker Daltonics. Purities were determined with two diverse HPLC systems based either on mass determination or on UV detection. A Waters acquity UPLC system coupled to a Waters TQD ESI mass spectrometer or a Waters SQD ESI mass spectrometer was used both in combination with a Waters TUV detector. Water (A) and CH3CN (B) were used as eluents. LC-MS spectra were recorded on an Agilent 1100 series HPLC system using a Alltech Prevail C18 column (2.1 mm×50 mm, 3 μm) coupled with an Esquire 3000 plus as MS detector, and a “method A” 5-100% B, 20 min gradient was used with a flow rate of 0.2 mL/min. Formic acid, 0.1%, was added to solvents A and B. Waters Acquity UPLC BEH C18 1.7 μm, 2.1 mm×50 mm column was used. Solvent A consisted of water with 0.1% formic acid. Solvent B consisted of acetonitrile with 0.1% formic acid. Method I involved the following: 0.15 min 95% A, 5% B, then in 1.85 min from 95% A, 5% B to 95% B, 5% A, then 0.25 min (0.350 mL/min), 95% B, 5% A. The wavelength for UV detection was 254 nm. Method II involved the following: flow 0.4 mL/min, 0.25 min 95% A, 5% B, then in 4.75 min to 95% B, 5% A, then 0.25 min 95% B, 5% A, followed by 0.75 min 95% A, 5% B. The wavelength for UV detection was 214 nm. Where necessary, flash purification was performed on a Biotage ISOLERA One flash system equipped with an internal variable dual wavelength diode array detector (200-400 nm). For normal phase purifications SNAP cartridges (10-340 g, flow rate of 10-100 mL/min) were used, and reversed phase purifications were done making use of KP-C18 containing cartridges. Dry sample loading was done by self-packing samplet cartridges using silica and Celite 545, respectively, for normal and reversed phase purifications. Gradients used varied for each purification. Mouse and rat plasma came from Innovative Research. The turbidity in the kinetic solubility experiments was measured using the UV/vis spectrophotometer Synergy MX, Biotek with Gen5.

[2] = Microsomal stability, human microsomes
Procedure: (§2) In a next step a subset of compounds was subjected to ADME analysis. Thereto the metabolism by murine and human microsomes of representative compounds of the disclosure was measured. The compound ferrostatin-1 (Fer-1, described in S. J. Dixon et al. (2012) Cell 149, 1060-1072), originally described to inhibit ferroptosis, was used a control. In addition, the plasma stability in murine and human plasma was measured. The percentage of remaining compounds was measured by LC-MS.

[3] = Microsomal stability, murine microsomes
Procedure: as §2

[4] = Plasma stability, human plasma; format: in vitro ADME; details: for recovery at 6 h: human
Procedure: Thereto the metabolism by murine and human microsomes of representative compounds of the disclosure was measured. […] In addition, the plasma stability in murine and human plasma was measured. The percentage of remaining compounds was measured by LC-MS.

[5] = Plasma stability, murine plasma; format: in vitro ADME, mouse; details: for recovery at 6 h: mouse
Procedure: as §1

[6] = system: IMR-32 neuroblastoma cell line; assay: Inhibition of erastin-induced ferroptosis in IMR-32 cells (Sytox Green cell death readout); format: cell-based; details: Homo sapiens; inhibiting ferroptosis in the IMR-32 neuroblastoma cell line stimulated with 10 μM erastin; compounds 1 nM to 1 μM, triplicate
Procedure: In the present disclosure, the potency of a compound inhibiting (or reducing) ferroptosis and/or oxytosis are determined in in vitro or in vivo assays. Typically in vitro assays are used to measure the potency of a candidate compound. Examples of suitable in vitro assays are cellular assays. One non-limiting example of an assay involves the use of the IMR-32 neuroblastoma cell line. The latter is stimulated to enter into ferroptosis upon stimulation with 10 μM erastin, a documented ferroptosis inducer (see, for example, Dixon et al. (2012) Cell 149, 1060-1072, and ferroptosis inhibitors are evaluated for the prevention of erastin-induced ferroptosis. Yet another assay is based the glutamate-induced cell death in the hippocampal cell line HT22 and ferroptosis/oxytosis inhibitors are evaluated for the prevention of cell death (see N. Henke et al. (2013) Cell Death and Disease 4, e470). Still another assay is based on the sorafinib-induced cell death (described to be iron dependent cell death) in hepatocellular carcinoma cells and ferroptosis inhibitors are evaluated for the prevention of cell death (see C. Louandre et al. (2013) Int. J. Cancer 133, 1732). The calculated potency of a compound inhibiting ferroptosis and/or oxytosis is typically depicted as an IC50 value. Examples of suitable in vivo assays are typically pre-clinical disease models of, for example, mice for the diseases benefiting the application of ferroptosis and/or oxytosis inhibitors, as described herein. One non-limiting example of an in vivo assay is based on inducing liver damage in mice by administering the herbicide diquat dibromide monohydrate and ferroptosis inhibitors are evaluated based on reduced levels of liver transaminases in serum (see Q. Ran et al. (2004) J. Biol. Chem. 279, 53, 55137).
The IC50 values for the individual compounds of the disclosure were determined in the neuroblastoma, IMR-32 cell line. In brief, IMR-32 cells were subjected to 10 μM erastin, the latter compound is known to induce ferroptosis. A concentration gradient (ranging from 1 nM to 1 μM) of the compounds was applied to the cells. These experiments were performed in a 96-well format (in triplicate), and cell death was analyzed in a fluorescent plate reader by use of a fluorescent cell death dye (1.5 μM Sytox Green). The IC50 values depicted in Table 1 are the concentration values for the individual compounds which are able to overcome ferroptosis.

[7] = human microsomes (CYP450 and other NADPH-dependent enzymes)
[8] = mouse microsomes (CYP450 and other NADPH-dependent enzymes)
[9] = aqueous buffer, kinetic from dmso stock

Compound | solubility [1, 9] | recovery at 6 h [4] | recovery at 6 h [5] | IC50 [6] | further results
CCOC(=O)c1ccc(NC2CCCCC2)c(N)c1 [Fer-1, ferrostatin-1, reference compound] | – | – | – | – | solubility [1]: >200 µM; Microsomal stability Half-life (t1/2) (min) Human [2, 7]: 6.9 ± 0.2 min; Microsomal stability Half-life (t1/2) (min) Mouse [3, 8]: 1.9 ± 0.6 min; Plasma stability % recovery after 6 h Human ([4]; human plasma, 6 h, percentage of remaining parent compound, LC-MS): 100%; Plasma stability % recovery after 6 h Mouse ([5]; mouse plasma, 6 h, percentage of remaining parent compound, LC-MS): 0%
Nc1cc(S(=O)(=O)N2CCOCC2)ccc1NC1CCCCC1 [Compound 32, N1-cyclohexyl-4-(morpholinosulfonyl)benzene-1,2-diamine] | > 200 µM | – | – | 208 nM | –
CN1CCN(S(=O)(=O)c2ccc(NC3CCCCC3)c(NCc3ccccc3)c2)CC1 [Compound 56, N2-benzyl-N1-cyclohexyl-4-((4-methylpiperazin-1-yl)sulfonyl)benzene-1,2-diamine] | 25 to 50 µM | – | – | 33 nM | –
O=S(=O)(c1ccc(NC2CCCCC2)c(NCc2ccccc2)c1)N1CCOCC1 [Compound 57, N2-benzyl-N1-cyclohexyl-4-(morpholinosulfonyl)benzene-1,2-diamine] | 25 to 50 µM | – | – | 30 nM | –
CCNS(=O)(=O)c1ccc(NC2C3CC4CC(C3)CC2C4)c(NCc2ccccc2)c1 (centres unmarked) [Compound 44, 4-(adamantan-2-ylamino)-3-(benzylamino)-N-ethylbenzenesulfonamide] | 12.5 to 25 µM | 100% | 99.4% | 3.5 nM | Microsomal stability Half-life (t1/2) (min) Human ([2]; human, microsomes): 36 ± 11 min; Microsomal stability Half-life (t1/2) (min) Mouse ([3]; mouse, microsomes): 31 ± 6 min
CCNS(=O)(=O)c1ccc(NC2C3CC4CC(C3)CC2C4)c(NCc2ccncc2)c1 (centres unmarked) [Compound 45, 4-(adamantan-2-ylamino)-N-ethyl-3-((pyridin-4-ylmethyl)amino)benzenesulfonamide] | 12.5 to 25 µM | 100% | 100% | 3.9 nM | Microsomal stability Half-life (t1/2) (min) Human [2, 7]: 64 ± 10 min; Microsomal stability Half-life (t1/2) (min) Mouse [3, 8]: 26 ± 5 min
CN1CCN(S(=O)(=O)c2ccc(NC3CCCCC3)c(N)c2)CC1 [Compound 31, N1-cyclohexyl-4-((4-methylpiperazin-1-yl)sulfonyl)benzene-1,2-diamine] | > 200 µM | – | – | 206 nM | –
O=S(=O)(NCCO)c1ccc(NC2CCCCC2)c(NCc2ccccc2)c1 [Compound 58, 3-(benzylamino)-4-(cyclohexylamino)-N-(2-hydroxyethyl)benzenesulfonamide] | 100 to 200 µM | – | – | 14 nM | –

Continued, in another order:

solubility [1, 9] | recovery at 6 h [4] | recovery at 6 h [5] | Compound | IC50 [6] | further results
12.5 to 25 µM | 81.9% | 86.2% | CCNS(=O)(=O)c1ccc(NC2CCCCC2)c(N)c1 [Compound 22, 3-amino-4-(cyclohexylamino)-N-ethylbenzenesulfonamide] | 67 nM | Microsomal stability Half-life (t1/2) (min) Human ([2]; human, microsomes): 37 ± 3 min; Microsomal stability Half-life (t1/2) (min) Mouse ([3]; mouse, microsomes): 31 ± 5 min
12.5 to 25 µM | 100% | 98.6% | CCNS(=O)(=O)c1ccc(NC2CCCCC2)c(NCc2ccccc2)c1 [Compound 37, 3-(benzylamino)-4-(cyclohexylamino)-N-ethylbenzenesulfonamide] | 4 nM | Microsomal stability Half-life (t1/2) (min) Human ([2]; human, microsomes): 88 ± 16 min; Microsomal stability Half-life (t1/2) (min) Mouse ([3]; mouse, microsomes): 187 ± 41 min
100 to 200 µM | – | – | CCNS(=O)(=O)c1ccc(NC2CCCCC2)c(NCc2cncnc2)c1 [Compound 39, 4-(cyclohexylamino)-N-ethyl-3-((pyrimidin-5-ylmethyl)amino)benzenesulfonamide] | 187 nM | –
